From patent US7332501B2, “Indol-3-yl-carbonyl-spiro-piperidine derivatives as V1a receptor antagonists” (Hoffmann-La Roche Inc., priority 2005, dated 2008)
Where a name gives a salt, the structure may show the parent alone.

These compounds were tested against T1, human V1a receptor (Homo sapiens, UniProt P37288) (assay: human V1a receptor binding (3H-Vasopressin SPA, HEK293 membranes)). Conditions: displacement of 4 nM 3H-Vasopressin, membranes of HEK293 cells transiently transfected with human V1a receptor; Ki from IC50 by Cheng-Prussoff.
T1 construct: expressed in transfected cells; host or cells: HEK293 cells, transiently transfected; cell membranes
Outline: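 Transiently transfected HEK293 membranes on yttrium silicate SPA beads in Tris binding buffer (120 mM NaCl, 5 mM KCl, 2 mM CaCl2, 10 mM MgCl2). 3H-vasopressin added as 4 nM working solution; excess cold vasopressin set non-specific binding. 1 h at room temperature, then counting; Ki from fitted IC50 via Cheng-Prusoff.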

T1 sequence (P37288 whole entry): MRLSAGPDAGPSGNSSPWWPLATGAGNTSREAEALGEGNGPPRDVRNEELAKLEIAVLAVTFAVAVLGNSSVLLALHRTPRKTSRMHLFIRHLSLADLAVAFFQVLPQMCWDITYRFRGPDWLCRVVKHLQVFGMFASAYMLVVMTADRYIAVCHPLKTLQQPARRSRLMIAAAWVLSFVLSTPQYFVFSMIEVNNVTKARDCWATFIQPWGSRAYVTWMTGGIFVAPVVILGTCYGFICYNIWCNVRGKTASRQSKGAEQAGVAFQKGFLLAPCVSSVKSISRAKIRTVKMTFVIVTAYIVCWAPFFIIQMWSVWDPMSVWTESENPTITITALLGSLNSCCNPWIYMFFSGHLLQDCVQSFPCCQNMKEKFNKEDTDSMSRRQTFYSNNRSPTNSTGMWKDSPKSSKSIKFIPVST

Compound | Ki [nM]
O=C1OC2(CCN(C(=O)c3cn(Cc4cncnc4)c4cc(Cl)ccc34)CC2)c2ccc(F)cc21 [Example 174, 1′-{[6-Chloro-1-(pyrimidin-5-ylmethyl)-1H-indol-3-yl]carbonyl}-5-fluoro-3H-spiro[2-benzofuran-1,4′-piperidin]-3-one] | 2.6
N#CCCn1cc(C(=O)N2CCC3(CC2)OC(=O)c2cc(F)ccc23)c2ccc(Cl)cc21 [Example 175, 3-{6-Chloro-3-[(5-fluoro-3-oxo-1′H,3H-spiro[2-benzofuran-1,4′-piperidin]-1′-yl)carbonyl]-1H-indol-1-yl}propanenitrile] | 2.5
O=C1OC2(CCN(C(=O)c3c4n(c5cc(Cl)ccc35)CCNC4=O)CC2)c2ccc(F)cc21 [Example 176, 1′-[(7-Chloro-1-oxo-1,2,3,4-tetrahydropyrazino[1,2-a]indol-10-yl)carbonyl]-5-fluoro-3H-spiro[2-benzofuran-1,4′-piperidin]-3-one] | 14.8
O=C1OC2(CCN(C(=O)c3cn(CC4CN(Cc5ccccc5)CCO4)c4cc(Cl)ccc34)CC2)c2ccc(F)cc21 (stereo not drawn) [Example 177, 1′-({1-[(4-Benzylmorpholin-2-yl)methyl]-6-chloro-1H-indol-3-yl}carbonyl)-5-fluoro-3H-spiro[2-benzofuran-1,4′-piperidin]-3-one] | 6.9
Cc1cc(Cn2cc(C(=O)N3CCC4(CC3)OC(=O)c3cc(F)ccc34)c3ccc(Cl)cc32)no1 [Example 179, 1′-({6-Chloro-1-[(5-methylisoxazol-3-yl)methyl]-1H-indol-3-yl}carbonyl)-5-fluoro-3H-spiro[2-benzofuran-1,4′-piperidin]-3-one] | 3.1
O=C1OC2(CCN(C(=O)c3cn(Cc4ccccn4)c4cc(Cl)ccc34)CC2)c2ccccc21 [Example 180, 1′-{[6-Chloro-1-(pyridin-2-ylmethyl)-1H-indol-3-yl]carbonyl}-3H-spiro[2-benzofuran-1,4′-piperidin]-3-one] | 1.5
Cc1nc(Cn2cc(C(=O)N3CCC4(CC3)OC(=O)c3cc(F)ccc34)c3ccc(Cl)cc32)c(C2CC2)o1 [Example 182, 1′-({6-Chloro-1-[(5-cyclopropyl-2-methyl-1,3-oxazol-4-yl)methyl]-1H-indol-3-yl}carbonyl)-5-fluoro-3H-spiro[2-benzofuran-1,4′-piperidin]-3-one] | 4
Cn1cncc1Cn1cc(C(=O)N2CCC3(CC2)OC(=O)c2cc(F)ccc23)c2ccc(Cl)cc21 [Example 183, 1′-({6-Chloro-1-[(1-methyl-1H-imidazol-5-yl)methyl]-1H-indol-3-yl}carbonyl)-5-fluoro-3H-spiro[2-benzofuran-1,4′-piperidin]-3-one] | 5.2
Cc1cc(Cn2cc(C(=O)N3CCC4(CC3)OC(=O)c3cc(F)ccc34)c3ccc(Cl)cc32)on1 [Example 184, 1′-({6-Chloro-1-[(3-methylisoxazol-5-yl)methyl]-1H-indol-3-yl}carbonyl)-5-fluoro-3H-spiro[2-benzofuran-1,4′-piperidin]-3-one] | 3.4
Cc1cc(Cn2cc(C(=O)N3CCC4(CC3)OC(=O)c3cc(F)ccc34)c3ccc(Cl)cc32)nn1C [Example 185, 1′-({6-Chloro-1-[(1,5-dimethyl-1H-pyrazol-3-yl)methyl]-1H-indol-3-yl}carbonyl)-5-fluoro-3H-spiro[2-benzofuran-1,4′-piperidin]-3-one] | 2.2
Cc1noc(C)c1Cn1cc(C(=O)N2CCC3(CC2)OC(=O)c2cc(F)ccc23)c2ccc(Cl)cc21 [Example 186, 1′-({6-Chloro-1-[(3,5-dimethylisoxazol-4-yl)methyl]-1H-indol-3-yl}carbonyl)-5-fluoro-3H-spiro[2-benzofuran-1,4′-piperidin]-3-one] | 2.9
Cc1nc(Cn2cc(C(=O)N3CCC4(CC3)OC(=O)c3cc(F)ccc34)c3ccc(Cl)cc32)c(C)o1 [Example 187, 1′-({6-Chloro-1-[(2,5-dimethyl-1,3-oxazol-4-yl)methyl]-1H-indol-3-yl}carbonyl)-5-fluoro-3H-spiro[2-benzofuran-1,4′-piperidin]-3-one] | 3.6
O=C1OC2(CCN(C(=O)c3cn(CC4(F)COC4)c4cc(Cl)ccc34)CC2)c2ccc(F)cc21 [Example 188, 1′-({6-Chloro-1-[(3-fluorooxetan-3-yl)methyl]-1H-indol-3-yl}carbonyl)-5-fluoro-3H-spiro[2-benzofuran-1,4′-piperidin]-3-one] | 1.6
O=C1OC2(CCN(C(=O)c3cn(CC4(F)COC4)c4cc(Cl)ccc34)CC2)c2ccccc21 [Example 189, 1′-({6-Chloro-1-[(3-fluorooxetan-3-yl)methyl]-1H-indol-3-yl}carbonyl)-3H-spiro[2-benzofuran-1,4′-piperidin]-3-one] | 1.7
COCC1(Cn2cc(C(=O)N3CCC4(CC3)OC(=O)c3cc(F)ccc34)c3ccc(Cl)cc32)CC1 [Example 190, 1′-[(6-Chloro-1-{[1-(methoxymethyl)cyclopropyl]methyl}-1H-indol-3-yl)carbonyl]-5-fluoro-3H-spiro[2-benzofuran-1,4′-piperidin]-3-one] | 2.6
N#CCC1(Cn2cc(C(=O)N3CCC4(CC3)OC(=O)c3cc(F)ccc34)c3ccc(Cl)cc32)CC1 [Example 191, [1-({6-Chloro-3-[(5-fluoro-3-oxo-1′H,3H-spiro[2-benzofuran-1,4′-piperidin]-1′-yl)carbonyl]-1H-indol-1-yl}methyl)cyclopropyl]acetonitrile] | 2.8
COCC1(Cn2cc(C(=O)N3CCC4(CC3)OC(=O)c3ccccc34)c3ccc(Cl)cc32)CC1 [Example 192, 1′-[(6-Chloro-1-{[1-(methoxymethyl)cyclopropyl]methyl}-1H-indol-3-yl)carbonyl]-3H-spiro[2-benzofuran-1,4′-piperidin]-3-one] | 2.4
N#CCC1(Cn2cc(C(=O)N3CCC4(CC3)OC(=O)c3ccccc34)c3ccc(Cl)cc32)CC1 [Example 193, [1-({6-Chloro-3-[(3-oxo-1′H,3H-spiro[2-benzofuran-1,4′-piperidin]-1′-yl)carbonyl]-1H-indol-1-yl}methyl)cyclopropyl]acetonitrile] | 2.1
CNCCNC(=O)c1[nH]c2cc(Cl)ccc2c1C(=O)N1CCC2(CC1)OC(=O)c1cc(F)ccc12 [Example 194, 6-Chloro-3-[(5-fluoro-3-oxo-1′H,3H-spiro[2-benzofuran-1,4′-piperidin]-1′-yl)carbonyl]-N-[2-(methylamino)ethyl]-1H-indole-2-carboxamide hydrochloride] | 15.1
O=C1OC2(CCN(C(=O)c3cn(CCC4CCOCC4)c4cc(Cl)ccc34)CC2)c2ccc(F)cc21 [Example 195, 1′-({6-Chloro-1-[2-(tetrahydro-2H-pyran-4-yl)ethyl]-1H-indol-3-yl}carbonyl)-5-fluoro-3H-spiro[2-benzofuran-1,4′-piperidin]-3-one hydrochloride] | 2.1
O=C1OC2(CCN(C(=O)c3cn(CCC4CCOCC4)c4cc(Cl)ccc34)CC2)c2ccccc21 [Example 196, 1′-({6-Chloro-1-[2-(tetrahydro-2H-pyran-4-yl)ethyl]-1H-indol-3-yl}carbonyl)-3H-spiro[2-benzofuran-1,4′-piperidin]-3-one] | 1.4
CC(C)(C)OC(=O)N1CCOC(Cn2cc(C(=O)N3CCC4(CC3)OC(=O)c3ccccc34)c3ccc(Cl)cc32)C1 (stereo not drawn) [Example 197, tert-Butyl 2-({6-chloro-3-[(3-oxo-1′H,3H-spiro[2-benzofuran-1,4′-piperidin]-1′-yl)carbonyl]-1H-indol-1-yl}methyl)morpholine-4-carboxylate] | 3
O=C1OC2(CCN(C(=O)c3cn(CC4CNCCO4)c4cc(Cl)ccc34)CC2)c2ccccc21 (stereo not drawn) [Example 198, 1′-{[6-Chloro-1-(morpholin-2-ylmethyl)-1H-indol-3-yl]carbonyl}-3H-spiro[2-benzofuran-1,4′-piperidin]-3-one hydrochloride] | 3.3
CC(C)(C)OC(=O)N1CCOC(Cn2cc(C(=O)N3CCC4(CC3)OC(=O)c3cc(F)ccc34)c3ccc(Cl)cc32)C1 (stereo not drawn) [Example 199, tert-Butyl 2-({6-chloro-3-[(5-fluoro-3-oxo-1′H,3H-spiro[2-benzofuran-1,4′-piperidin]-1′-yl)carbonyl]-1H-indol-1-yl}methyl)morpholine-4-carboxylate] | 3.3
O=C1OC2(CCN(C(=O)c3cn(CC4CNCCO4)c4cc(Cl)ccc34)CC2)c2ccc(F)cc21 (stereo not drawn) [Example 200, 1′-{[6-Chloro-1-(morpholin-2-ylmethyl)-1H-indol-3-yl]carbonyl}-5-fluoro-3H-spiro[2-benzofuran-1,4′-piperidin]-3-one dihydrochloride] | 5.8
O=C1OC2(CCN(C(=O)c3cn(Cc4cc(F)cc(F)c4)c4ccccc34)CC2)c2ccc(F)cc21 [Example 201, 1′-{[1-(3,5-Difluorobenzyl)-1H-indol-3-yl]carbonyl}-5-fluoro-3H-spiro[2-benzofuran-1,4′-piperidin]-3-one] | 4.6
O=C1OC2(CCN(C(=O)c3cn(Cc4cc(F)cc(F)c4)c4ccccc34)CC2)c2ccccc21 [Example 202, 1′-{[1-(3,5-Difluorobenzyl)-1H-indol-3-yl]carbonyl}-3H-spiro[2-benzofuran-1,4′-piperidin]-3-one] | 4.3
CCN(CC)C(=O)Cn1cc(C(=O)N2CCC3(CC2)OC(=O)c2ccccc23)c2ccccc21 [Example 203, N,N-Diethyl-2-{3-[(3-oxo-1′H,3H-spiro[2-benzofuran-1,4′-piperidin]-1′-yl)carbonyl]-1H-indol-1-yl}acetamide] | 11.7
O=C(Cn1cc(C(=O)N2CCC3(CC2)OCc2ccccc23)c2ccc(Cl)cc21)N1CCCCC1 [Example 204, 1′-{[6-Chloro-1-(2-oxo-2-piperidin-1-ylethyl)-1H-indol-3-yl]carbonyl}-3H-spiro[2-benzofuran-1,4′-piperidine]] | 1.1
O=C(Cn1cc(C(=O)N2CCC3(CC2)OCc2ccccc23)c2ccc(Cl)cc21)N1CCOCC1 [Example 205, 1′-{[6-Chloro-1-(2-morpholin-4-yl-2-oxoethyl)-1H-indol-3-yl]carbonyl}-3H-spiro[2-benzofuran-1,4′-piperidine]] | 1
